Ends that are not written are not given here.
Experiments:
[1] = tested on: human ASCs (adipose-derived mesenchymal stem cells); experiment: Biotinylated peptide binding by flow cytometry (Neutravidin-PE); settings: biotinylated peptide 25 μM, 30 min, 4° C.
Text: (§1) The synthetic biotinylated cell binding peptide SEQ ID NO: 4 was examined for its ability to specifically bind MSCs compared to a number of other cells types including adipose-derived mesenchymal stem cells (ASCs), dermal fibroblasts, rodent MSCs, red blood cells, monocytes, lymphocytes and granulocytes. The cell binding peptide was biotinylated as described herein at Example 2. Cultured cells of each type were either purchased (ASCs and dermal fibroblasts) or isolated from rodent bone marrow (rodent MSCs) or human blood. Cells were first harvested and resuspended at 10^6/mL in PBS+2% fetal bovine serum (FBS). An aliquot of cells (50 μL) was incubated in 50 μL of peptide solution (25 μM in PBS+FBS) for 30 min at 4° C. Cells were then washed twice in PBS+FBS with 300×g centrifugation for 5 min between washes. Fluorescently-tagged neutravidin (Neutravidin-PE from INVITROGEN) was then added to the cells to label biotinylated peptide bound to cells. Neutravidin-PE was diluted 1:250 from stock and applied at 50 μL to cells. Cells were then washed in PBS+FBS, and acquired on a BD […]. Peptide reactivity was then measured as percent positivity relative to Neutravidin-PE staining without the addition of biotinylated peptide.

human MSCs [2] = experiment: as above; settings: biotinylated peptide 25 μM, 30 min, 4° C.
Text: as §1

dermal fibroblasts = experiment: as above; parameters: species or system human; settings: biotinylated peptide 25 μM, 30 min, 4° C.
Text: as §1

[3] = tested on: endothelial colony forming cells (ECFCs); experiment: Biotinylated peptide binding to endothelial and other cells by flow cytometry; parameters: species or system human; settings: biotinylated peptide 10 μM
Experimental: (§2) The synthetic biotinylated binding peptide SEQ ID NO: 4 was further examined for its ability to bind endothelial cells compared to other cell types (see FIG. 16). […] ECFCs are clonally expanded cells isolated from human umbilical cord blood, and are considered highly proliferative endothelial progenitor cells (EPCs) based on their clonogenic and proliferative potential. In another experiment, binding peptide SEQ ID NO: 4 was assayed for its ability to selectively isolate endothelial cells versus smooth muscle cells in the presence of whole blood. HUVECs or UASMCs were incubated in the presence of medium containing 20% whole blood and binding peptide SEQ ID NO: 4-conjugated magnetic beads (via biotin-SA) for 30 min. The solutions containing the bead-peptide-cell complexes were then passed through a […] LS column in a magnetic field. The column was washed, and the remaining peptide-bound cells were then released from the magnetic field and counted.

peripheral blood cells = experiment: as above; parameters: species or system human; settings: biotinylated peptide 10 μM
Experimental: as §2

[4] = tested on: human umbilical vein endothelial cells (HUVECs); experiment: as above; settings: biotinylated peptide 10 μM
Experimental: as §2

[5] = tested on: umbilical artery smooth muscle cells (UASMCs); experiment: as above; settings: biotinylated peptide 10 μM
Experimental: as §2

HUVECs or UASMCs = experiment: Selective isolation of endothelial versus smooth muscle cells with peptide-conjugated magnetic beads in whole blood; format: cell-based, human; settings: medium containing 20% whole blood, 30 min
Experimental: as §2

human MSCs [6] = experiment: Capture of cultured MSCs on peptide-coated streptavidin microbeads (LS columns); format: cell-based; settings: 160,000 cultured human MSCs
Experimental: In this experiment the ability of the biotinylated cell binding peptide SEQ ID NO: 4 to capture human MSCs from a homogeneous cultured cell population was examined. The cell binding peptide SEQ ID NO: 4 was biotinylated as described herein at Example 2. The cell binding peptide SEQ ID NO: 4, and a non-binding control peptide, were added to separate 300 μl volumes of […] BIOTEC Streptavidin microbeads at a concentration of 20 μM. These beads are made from iron filings, coated with a dextran coating which is functionalized with streptavidin moieties. Peptide was incubated with beads for 45 min on ice. The 300 μl of peptide coated microbeads were added to pre-equilibrated LS columns outside of the magnetic field to evenly distribute the magnetic beads throughout the columns. Columns were then placed into a magnetic field, and excess peptide was washed away with buffer while retaining the peptide coated microbeads. Cultured and expanded human MSCs from bone marrow aspirate (160,000 cells; LONZA) were added to each LS column and allowed to pass through by gravity flow. Flowthrough was collected and cycled through the columns 5 times, after which the columns were washed with 5 ml buffer. […] The collected flowthrough with 5 ml wash and eluted cells were spun down, resuspended in a smaller volume, and counted by hemacytometer (see FIG. 17). […]

[7] = tested on: MSCs from bone marrow aspirate; experiment: Capture of MSCs from bone marrow aspirate with biotinylated peptide and magnetic beads (CFU); format: cell-based
Experimental: This experiment was performed to examine the ability of cell binding peptide SEQ ID NO: 4 to capture MSCs directly from bone marrow aspirate in comparison to two separate antibodies against the CD105 I antigen (CD105) and the MSCA-1 stem cell antigen (MSCA-1). This experiment employed biotinylated peptides with streptavidin-coated […] magnetic beads. The peptides were biotinylated as described herein at Example 2. […] For the antibody capture experiment, magnetic beads having covalently attached CD105 or MSCA-1 antibody were employed ([…]). Prior to incubation with the peptides and antibodies, bone marrow aspirate (BMA) was mixed with 5 volumes of 10 mM ammonium chloride for 1-2 min at room temperature to lyse red blood cells. The lysate was centrifuged for 5 min at 300×g and the supernatant discarded. The cell pellet was washed with wash buffer (PBS+0.5% bovine serum albumin+0.5 mM EDTA) and cells were resuspended in […] peptide at a concentration of 10^8 per mL. For peptide binding studies, the cell suspension was incubated with the biotinylated peptides for 30 min at 4° C. to allow for binding. After incubation, cells were spun down at 300×g for 5 min, and peptide solution was aspirated. Cells were then rinsed twice with wash buffer, with centrifugation between washes. […] Colony forming units (CFUs) were counted after 14 days in culture. […]

HUVECs = experiment: Endothelial cell phenotype and anti-thrombogenic protein secretion (flow cytometry, ELISA); format: cell-based, human; settings: HUVECs on collagen with 10 μM free peptide, 24 hours
Experimental: Once immobilized on a vascular graft, endothelial cells must retain their characteristic properties of promoting endothelialization. Therefore, the phenotype, viability, and anti-thrombogenic protein expression profiles were evaluated for endothelial cells in the presence of collagen modified with the endothelial cell binding peptide SEQ ID NO: 4 (generated according to Example 7 using BS^3 reagent). […] Specifically, HUVECs were plated on SEQ ID NO: 4 peptide-modified collagen, collagen with 10 μM free SEQ ID NO: 4 peptide or collagen alone for 24 hours. Flow cytometry was performed using a BD […], and ELISAs were performed according to manufacturers instructions. (FIGS. 22A & 22B). Tissue-type Plasminogen Activator (t-PA) and 6-keto Prostaglandin F1a protein expression levels secreted in this assay are aligned with other reports on cultured HUVECS (Kimura and Yokoi-Hayashi, Biochim Biophys Acta, 1996, 1310:1-4; Merhi-Soussi et al., J Leukoc Biol, 2000, 68:881-9).

[8] = tested on: MSCs captured from bone marrow; experiment: Adipocyte differentiation of captured MSCs (Oil Red O); format: cell-based; settings: 21 days adipocyte differentiation medium
Experimental: After capture of MSCs using cell binding peptide SEQ ID NO: 4 with the […] magnetic system according to Example 6, the ability of the captured cells to differentiate into an adipocyte lineage was examined. The MSCs present in the […] column eluants (see Example 6) were cultured for 21 days in complete medium (DMEM, 10% FBS, 100 units/mL penicillin, 100 μg/mL streptomycin, and 2 mM glutamine) supplemented with 0.5 mM isobutyl methylxanthine, 1 μM dexamethasone, 10 μM insulin, 200 μM indomethacin, and 1% antibiotic/antimycotic. Following the 21 day incubation, the cells were fixed in 4% paraformaldehyde in PBS for 15 minutes, washed in 60% isopropanol for 5 minutes, and stained with Oil Red O (SIGMA) for 10 minutes to determine the extent of adipogenesis (see FIG. 26, panels A (undifferentiated MSCs) and panel B (adipocyte differentiated MSCs)). The image of the adipose differentiated cells (FIG. 26, panel B) contains a larger magnification inset where the lipid vacuoles are clearly visible.

[9] = tested on: MSCs captured from bone marrow; experiment: Osteoblast differentiation of captured MSCs (Alizarin Red S); format: cell-based; settings: 14 days osteoblast differentiation medium
Experimental: For osteogenic differentiation, the MSCs present in the […] column eluants (see Example 6) were cultured for 14 days in complete medium supplemented with 0.1 μM dexamethasone, 50 μM ascorbate-2-phosphate, 10 mM β-glycerophosphate, and 1% antibiotic/antimycotic. Calcium mineralization was measured by Alizarin Red S (SIGMA) staining to reveal mineralizing osteoblasts (see FIG. 26, panel C (undifferentiated MSCs) and panel D (osteoblast differentiated MSCs)).

[10] = tested on: MSCs captured from bone marrow; experiment: Chondrocyte differentiation of captured MSCs (aggrecan immunostaining); format: cell-based; settings: 24 days CHONDRODIFF medium
Experimental: To examine chondrocyte differentiation, the MSCs present in the […] column eluants (see Example 6) were pelleted by centrifugation at 150×g for 5 minutes. Cells were washed once with 1 ml MACS NH CHONDRODIFF Medium without disturbing the pellet. Cells were spun again and 1 mL CHONDRODIFF Medium was added to each pellet. Every third day, medium was aspirated and replaced with fresh pre-warmed medium. After 24 days in culture, cells exposed to CHONDRODIFF medium formed cartilage plugs or nodules, whereas control cells formed only loose or small nodules. Cells were washed once with PBS and fixed in neutral buffered formalin overnight. Sections were embedded in paraffin and sectioned at 5 microns. Sections were examined by hemotoxylin and eosin staining (data not shown). Sections were further examined by immunostaining for aggrecan, a major structural component of cartilage. In FIG. 27, sections from the periphery (panels A and B) or center (panels C and D) were incubated with an antibody against aggrecan (ABCAM) (panels B and D) or with secondary detection reagents only as a control (panels A and C), then counterstained with DAPI to reveal cell nuclei. […] Control images of captured cells grown in the absence of differentiation medium could not be taken due to the small and loose nature of nodules.

SSFWDVCQGDGTCYGGGSR (not fully specified; cysteine pairing not given here) [SEQ ID NO: 4, tested biotinylated (C-terminal GSSGK(biotin)) or attached to substrates via spacer and lysine]
binding to human ASCs [1]: high binding | binding to human MSCs (percent positivity relative to Neutravidin-PE alone) (human MSCs [2]): high binding | binding to dermal fibroblasts (dermal fibroblasts): high binding | cross-reactivity with ECFCs [3]: cross-reacted strongly | cross-reactivity with peripheral blood cells (peripheral blood cells): no cross-reactivity | cross-reactivity with HUVECs [4]: cross-reacted strongly | cross-reactivity with UASMCs [5]: weakly | HUVECs isolated compared to UASMCs (HUVECs or UASMCs): 8 fold | capture of MSCs (human MSCs [6]): approximately 70% | MSC capture from bone marrow aspirate (CFUs after 14 days) ([7]; compared with CD105 and MSCA-1 antibody beads): as efficient as capture by either of the CD105 or MSCA-1 antibodies | immunoreactivity of captured cells (CD29, CD44, CD73, CD105, CD166, CD90, CD45, CD34) ([7]; compared with CD105 isolated cells): no changes were observed | endothelial cell phenotype and anti-thrombogenic protein secretion (HUVECs): maintained their endothelial cell phenotype and their ability to secrete anti-thrombogenic proteins | adipogenesis of captured MSCs [8]: adipogenesis pathway remains intact | osteogenic differentiation of captured MSCs [9]: osteogenic pathway remains intact | aggrecan in nodules formed from captured MSCs [10]: aggrecan could be detected

Source: US8691946B2, “Methods and compositions for soft tissue repair” (Affinergy, LLC, priority 2009, dated 2014)
